{
  "source": "PubChem BioAssay (NCI)",
  "test_in_all_cases": "inhibition of tumour cell growth, NCI panel, 48 h",
  "key": {"MCF7 breast": {"test_system": "MCF7 breast"}, "EKVX NSCLC": {"test_system": "EKVX NSCLC"}, "SF-539 CNS": {"test_system": "SF-539 CNS"}, "SN12C renal": {"test_system": "SN12C renal"}, "SK-MEL-5 melanoma": {"test_system": "SK-MEL-5 melanoma"}, "UACC-62 melanoma": {"test_system": "UACC-62 melanoma"}, "786-0 renal": {"test_system": "786-0 renal"}, "BT-549 breast": {"test_system": "BT-549 breast"}, "M14 melanoma": {"test_system": "M14 melanoma"}, "OVCAR-8 ovarian": {"test_system": "OVCAR-8 ovarian"}, "A549 NSCLC": {"test_system": "A549 NSCLC"}, "IGROV1 ovarian": {"test_system": "IGROV1 ovarian"}, "PC-3 prostate": {"test_system": "PC-3 prostate"}, "SK-OV-3 ovarian": {"test_system": "SK-OV-3 ovarian"}, "K-562 leukemia": {"test_system": "K-562 leukemia"}, "CCRF-CEM leukemia": {"test_system": "CCRF-CEM leukemia"}, "NCI/ADR-RES ovarian": {"test_system": "NCI/ADR-RES ovarian"}, "OVCAR-3 ovarian": {"test_system": "OVCAR-3 ovarian"}, "RXF 393 renal": {"test_system": "RXF 393 renal"}, "OVCAR-4 ovarian": {"test_system": "OVCAR-4 ovarian"}, "NCI-H460 lung": {"test_system": "NCI-H460 lung"}, "T-47D breast": {"test_system": "T-47D breast"}, "HOP-92 NSCLC": {"test_system": "HOP-92 NSCLC"}, "UACC-257 melanoma": {"test_system": "UACC-257 melanoma"}, "HOP-62 NSCLC": {"test_system": "HOP-62 NSCLC"}, "UO-31 renal": {"test_system": "UO-31 renal"}, "HT29 colon": {"test_system": "HT29 colon"}, "LOX IMVI melanoma": {"test_system": "LOX IMVI melanoma"}, "MDA-MB-231 breast": {"test_system": "MDA-MB-231 breast"}},
  "note": "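Five compound concentrations were applied to cells in 96-well plates for 48 hours; endpoints were derived by simple linear interpolation of the resulting dose-response curve. GI50 marks 50% less growth. TGI is the concentration that stops growth completely.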",
  "data": [
    {"smiles": "C[C@H](O)C(=O)N1CCC(CCn2c(Sc3cc4c(cc3Br)OCO4)nc3c(N)ncnc32)CC1", "values": [
      {"measurement": "TGI", "setting": "MCF7 breast", "value": "> 100", "unit": "µM"},
      {"measurement": "GI50", "setting": "EKVX NSCLC", "value": 4.11, "unit": "µM"},
      {"measurement": "TGI", "setting": "EKVX NSCLC", "value": "> 100", "unit": "µM"},
      {"measurement": "GI50", "setting": "SF-539 CNS", "value": 1.73, "unit": "µM"},
      {"measurement": "TGI", "setting": "SF-539 CNS", "value": "> 100", "unit": "µM"},
      {"measurement": "GI50", "setting": "SN12C renal", "value": 0.725, "unit": "µM"},
      {"measurement": "TGI", "setting": "SN12C renal", "value": "> 100", "unit": "µM"},
      {"measurement": "GI50", "setting": "SK-MEL-5 melanoma", "value": 2.95, "unit": "µM"},
      {"measurement": "TGI", "setting": "SK-MEL-5 melanoma", "value": "> 100", "unit": "µM"},
      {"measurement": "GI50", "setting": "UACC-62 melanoma", "value": 0.862, "unit": "µM"},
      {"measurement": "GI50", "setting": "786-0 renal", "value": 3.77, "unit": "µM"},
      {"measurement": "TGI", "setting": "786-0 renal", "value": "> 100", "unit": "µM"},
      {"measurement": "GI50", "setting": "BT-549 breast", "value": 1.93, "unit": "µM"},
      {"measurement": "TGI", "setting": "BT-549 breast", "value": "> 100", "unit": "µM"},
      {"measurement": "GI50", "setting": "M14 melanoma", "value": 0.965, "unit": "µM"},
      {"measurement": "TGI", "setting": "M14 melanoma", "value": "> 100", "unit": "µM"},
      {"measurement": "GI50", "setting": "OVCAR-8 ovarian", "value": 0.827, "unit": "µM"},
      {"measurement": "TGI", "setting": "OVCAR-8 ovarian", "value": "> 100", "unit": "µM"},
      {"measurement": "GI50", "setting": "A549 NSCLC", "value": 0.869, "unit": "µM"},
      {"measurement": "TGI", "setting": "A549 NSCLC", "value": "> 100", "unit": "µM"},
      {"measurement": "GI50", "setting": "IGROV1 ovarian", "value": 1.32, "unit": "µM"},
      {"measurement": "TGI", "setting": "IGROV1 ovarian", "value": "> 100", "unit": "µM"},
      {"measurement": "GI50", "setting": "PC-3 prostate", "value": 1.16, "unit": "µM"},
      {"measurement": "TGI", "setting": "PC-3 prostate", "value": "> 100", "unit": "µM"},
      {"measurement": "GI50", "setting": "SK-OV-3 ovarian", "value": 0.48, "unit": "µM"},
      {"measurement": "TGI", "setting": "SK-OV-3 ovarian", "value": "> 100", "unit": "µM"},
      {"measurement": "GI50", "setting": "K-562 leukemia", "value": 0.472, "unit": "µM"},
      {"measurement": "TGI", "setting": "K-562 leukemia", "value": "> 100", "unit": "µM"},
      {"measurement": "GI50", "setting": "CCRF-CEM leukemia", "value": 0.49, "unit": "µM"},
      {"measurement": "TGI", "setting": "CCRF-CEM leukemia", "value": "> 100", "unit": "µM"},
      {"measurement": "GI50", "setting": "NCI/ADR-RES ovarian", "value": 13.9, "unit": "µM"},
      {"measurement": "TGI", "setting": "NCI/ADR-RES ovarian", "value": "> 100", "unit": "µM"},
      {"measurement": "GI50", "setting": "OVCAR-3 ovarian", "value": 3.28, "unit": "µM"},
      {"measurement": "TGI", "setting": "OVCAR-3 ovarian", "value": "> 100", "unit": "µM"},
      {"measurement": "GI50", "setting": "RXF 393 renal", "value": 2.57, "unit": "µM"},
      {"measurement": "TGI", "setting": "RXF 393 renal", "value": "> 31.6", "unit": "µM"},
      {"measurement": "GI50", "setting": "OVCAR-4 ovarian", "value": "> 20.1", "unit": "µM"},
      {"measurement": "TGI", "setting": "OVCAR-4 ovarian", "value": "> 100", "unit": "µM"},
      {"measurement": "GI50", "setting": "NCI-H460 lung", "value": 0.432, "unit": "µM"},
      {"measurement": "TGI", "setting": "NCI-H460 lung", "value": "> 100", "unit": "µM"},
      {"measurement": "GI50", "setting": "T-47D breast", "value": 2.15, "unit": "µM"},
      {"measurement": "TGI", "setting": "T-47D breast", "value": "> 100", "unit": "µM"},
      {"measurement": "GI50", "setting": "HOP-92 NSCLC", "value": 2.19, "unit": "µM"},
      {"measurement": "TGI", "setting": "HOP-92 NSCLC", "value": "> 100", "unit": "µM"},
      {"measurement": "GI50", "setting": "UACC-257 melanoma", "value": 2.13, "unit": "µM"},
      {"measurement": "TGI", "setting": "UACC-257 melanoma", "value": "> 100", "unit": "µM"},
      {"measurement": "GI50", "setting": "HOP-62 NSCLC", "value": 1.73, "unit": "µM"},
      {"measurement": "TGI", "setting": "HOP-62 NSCLC", "value": "> 100", "unit": "µM"},
      {"measurement": "GI50", "setting": "UO-31 renal", "value": 2.05, "unit": "µM"},
      {"measurement": "TGI", "setting": "UO-31 renal", "value": "> 100", "unit": "µM"},
      {"measurement": "GI50", "setting": "HT29 colon", "value": 0.432, "unit": "µM"},
      {"measurement": "TGI", "setting": "HT29 colon", "value": "> 100", "unit": "µM"},
      {"measurement": "GI50", "setting": "LOX IMVI melanoma", "value": 0.596, "unit": "µM"},
      {"measurement": "TGI", "setting": "LOX IMVI melanoma", "value": 6.9, "unit": "µM"},
      {"measurement": "GI50", "setting": "MDA-MB-231 breast", "value": 1.46, "unit": "µM"},
      {"measurement": "TGI", "setting": "MDA-MB-231 breast", "value": 31.9, "unit": "µM"}
    ]}
  ]
}
